# Data from paper PMC10279920, “Single-molecule visualization of Pif1 helicase translocation on single-stranded DNA” (The Journal of Biological Chemistry, 2023).
# Numbering of substitutions follows the chain as printed.
# Tests used:
# Test in all cases: ATP hydrolysis, [γ-32P]-ATP TLC, Michaelis-Menten fit
# Assay type in all cases: biochemical
# Conditions in all cases: M13 ssDNA 1.5 μM nt, 10 nM Pif1, 5 mM MgCl2, 60 mM KCl, pH 7.5, 30 °C, no RPA; labelled compound as tracer
# GFP-Pif1 [1] = target: T1, GFP-Pif1 (Saccharomyces cerevisiae, UniProt P07271, V385A)
# T1 construct: N-terminal superfolder GFP fusion of nuclear isoform residues 40-859, pRSF-Duet-1, E. coli Rosetta2(DE3), Ni-NTA purified
# T1 sequence (P07271 40-859 V385A): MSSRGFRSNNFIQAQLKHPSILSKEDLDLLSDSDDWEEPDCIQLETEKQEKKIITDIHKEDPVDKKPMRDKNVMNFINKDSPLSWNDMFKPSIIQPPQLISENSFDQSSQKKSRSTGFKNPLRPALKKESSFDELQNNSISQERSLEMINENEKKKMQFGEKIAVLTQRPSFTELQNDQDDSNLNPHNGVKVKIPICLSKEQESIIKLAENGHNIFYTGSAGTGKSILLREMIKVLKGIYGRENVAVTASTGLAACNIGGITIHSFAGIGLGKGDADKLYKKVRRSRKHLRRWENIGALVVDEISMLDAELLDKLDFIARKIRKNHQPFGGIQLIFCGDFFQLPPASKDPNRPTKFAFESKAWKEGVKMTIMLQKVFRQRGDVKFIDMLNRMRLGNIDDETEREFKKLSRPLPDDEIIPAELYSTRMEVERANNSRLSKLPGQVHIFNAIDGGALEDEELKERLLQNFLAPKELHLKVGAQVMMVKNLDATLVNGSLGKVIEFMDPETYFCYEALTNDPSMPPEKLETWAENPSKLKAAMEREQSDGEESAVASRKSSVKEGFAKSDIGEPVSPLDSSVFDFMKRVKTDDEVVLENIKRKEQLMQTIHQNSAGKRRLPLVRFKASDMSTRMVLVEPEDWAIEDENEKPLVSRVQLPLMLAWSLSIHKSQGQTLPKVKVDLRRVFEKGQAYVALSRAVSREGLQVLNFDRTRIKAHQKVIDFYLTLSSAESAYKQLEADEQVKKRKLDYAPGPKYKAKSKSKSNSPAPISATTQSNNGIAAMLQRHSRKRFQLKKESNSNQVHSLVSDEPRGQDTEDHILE
# GFP-Pif1 [2] = target: T2, GFP-Pif1 (Saccharomyces cerevisiae, UniProt P07271)
# T2 construct: N-terminal superfolder GFP fusion of nuclear isoform residues 40-859, pRSF-Duet-1, E. coli Rosetta2(DE3), Ni-NTA purified
# T2 sequence (P07271 40-859): T1 sequence (P07271 40-859 V385A) with A346V
# Method: ATP hydrolysis, [γ-32P]-ATP TLC, Michaelis-Menten fit on GFP-Pif1 | Values for Vmax, Km, and kcat were determined and compared to WT Pif1
# GFP-Pif1 [3] = target: T3, GFP-Pif1 (Saccharomyces cerevisiae, UniProt P07271, T301A)
# T3 construct: N-terminal superfolder GFP fusion of nuclear isoform residues 40-859, pRSF-Duet-1, E. coli Rosetta2(DE3), Ni-NTA purified
# T3 sequence (P07271 40-859 T301A): T1 sequence (P07271 40-859 V385A) with T262A, A346V
compound,measurement,setting,value
Nc1ncnc2c1ncn2[C@@H]1O[C@H](COP(=O)(O)OP(=O)(O)OP(=O)(O)O)[C@@H](O)[C@H]1O [ATP],Km,GFP-Pif1 [1],1280 ± 540 µM
same,Km,GFP-Pif1 [2],470 ± 620 µM
same,Km,GFP-Pif1 [3],1000 ± 830 µM
